Reference: patent US5284999A, “DNA encoding a pituitary-specific thyroid hormone receptor” (Brigham and Women's Hospital, priority 1993, dated 1994)

Tested on: r-ErbAβ-2 protein (PSTHR, pituitary-specific thyroid hormone receptor)
Assay: Competition experiments with thyroid hormone analogs on r-ErbAβ-2 protein
Type: binding, rat

affinity of the r-ErbAβ-2 protein (rank order among analogs): greatest
SMILES: O=C(O)Cc1cc(I)c(Oc2ccc(O)c(I)c2)c(I)c1 [triac, 3,5,3'-triiodothyrocetic acid]
